In US20060111341A1, “Use of galanthamine and the derivatives thereof in the production of medicaments” (priority 2003, published 2006):

Tests used:
[1] = target: Acetylcholinesterase (Homo sapiens, UniProt P22303); test: biochemical
[2] = target: Butyrylcholinesterase (Homo sapiens, UniProt P06276); test: biochemical
Chain of Butyrylcholinesterase (P06276 29-602): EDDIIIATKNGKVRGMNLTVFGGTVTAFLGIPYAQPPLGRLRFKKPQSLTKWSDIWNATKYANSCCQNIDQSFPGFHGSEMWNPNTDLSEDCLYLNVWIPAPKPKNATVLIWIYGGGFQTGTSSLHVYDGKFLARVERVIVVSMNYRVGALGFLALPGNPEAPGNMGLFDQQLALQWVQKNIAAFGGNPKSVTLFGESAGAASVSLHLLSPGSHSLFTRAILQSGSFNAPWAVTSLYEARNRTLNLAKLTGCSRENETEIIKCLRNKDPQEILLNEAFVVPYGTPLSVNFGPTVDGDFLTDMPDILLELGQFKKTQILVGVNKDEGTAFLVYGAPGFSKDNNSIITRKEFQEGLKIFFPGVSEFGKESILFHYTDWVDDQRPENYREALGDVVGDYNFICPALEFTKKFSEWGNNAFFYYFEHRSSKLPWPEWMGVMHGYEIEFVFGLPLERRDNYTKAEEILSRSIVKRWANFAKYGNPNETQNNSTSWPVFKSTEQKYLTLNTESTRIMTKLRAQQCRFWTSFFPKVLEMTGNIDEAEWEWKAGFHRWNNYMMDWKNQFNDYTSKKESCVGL

Chain of Acetylcholinesterase (P22303 32-614): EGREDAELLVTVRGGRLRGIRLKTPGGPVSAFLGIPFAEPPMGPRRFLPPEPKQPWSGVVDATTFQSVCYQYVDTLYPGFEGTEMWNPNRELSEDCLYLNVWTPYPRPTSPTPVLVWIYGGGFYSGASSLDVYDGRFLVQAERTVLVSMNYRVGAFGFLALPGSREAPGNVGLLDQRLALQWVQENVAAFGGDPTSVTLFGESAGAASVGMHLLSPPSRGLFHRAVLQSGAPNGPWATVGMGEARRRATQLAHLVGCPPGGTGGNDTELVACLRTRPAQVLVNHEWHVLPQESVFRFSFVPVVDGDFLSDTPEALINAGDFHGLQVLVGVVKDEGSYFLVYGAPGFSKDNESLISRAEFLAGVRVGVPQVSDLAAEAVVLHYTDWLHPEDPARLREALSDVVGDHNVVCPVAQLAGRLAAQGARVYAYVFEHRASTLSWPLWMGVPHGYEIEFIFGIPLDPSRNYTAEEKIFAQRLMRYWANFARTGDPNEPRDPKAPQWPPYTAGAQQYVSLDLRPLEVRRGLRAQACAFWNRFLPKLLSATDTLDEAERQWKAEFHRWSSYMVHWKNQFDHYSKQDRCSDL

SMILES	IC50 [1] [µM]	IC50 [2] [µM]
CNC(=S)N1CCC23C=C[C@H](O)CC2Oc2c(OC)cc(Br)c(c23)C1 (mixture of isomers) [Nr 71]	31	20
COc1cc(Br)c2c3c1OC1C[C@@H](O)C=CC31CCN(CCC#N)C2 (mixture of isomers) [Nr 72]	> 100	43
CNC(=S)N1CCC23C=C[C@H](O)CC2Oc2c(OC)ccc(c23)C1 (mixture of isomers) [Nr 73]	23	30
COc1ccc2c3c1OC1C[C@@H](O)C=CC31CCN(C(=O)NC(C)C)C2 (mixture of isomers) [Nr 75]	4.2	> 100
COc1ccc2c3c1OC1C[C@@H](O)C=CC31CCN(C(=O)Nc1ccccc1)C2 (mixture of isomers) [Nr 76]	70	> 100
COc1ccc2c3c1OC1C[C@@H](O)C=CC31CCN(/C(=N/C#N)SC)C2 (mixture of isomers) [Nr 79]	25	0.54
COc1ccc2c3c1OC1C[C@@H](O)C=CC31CCN(C=C(C#N)C#N)C2 (mixture of isomers) [Nr 80]	28.5	> 100
COc1ccc2c3c1OC1C[C@@H](O)C=CC31CCN(CCCO)C2 (mixture of isomers) [Nr 81]	7.2	21
COc1ccc2c3c1OC1C[C@@H](O)C=CC31CCN(C(=O)NC(C)(C)C)C2 (mixture of isomers) [Nr 82]	4.8	> 100
COc1ccc2c3c1OC1C[C@@H](O)C=CC31CCN(c1ncccn1)C2 (mixture of isomers) [Nr 85]	38	30
COc1ccc2c3c1OC1C[C@@H](O)C=CC31CCN(C(=O)Nc1ccc3ccccc3c1)C2 (mixture of isomers) [Nr 88]	36	> 100
COc1ccc2c3c1OC1C[C@@H](O)C=CC31CCN(c1nccc(Cl)n1)C2 (mixture of isomers) [Nr 89]	66	> 100
COc1ccc2c3c1OC1C[C@@H](O)C=CC31CCN(CCCN)C2 (mixture of isomers) [Nr 90]	3.4	11
C=CCNC(=S)N1CCC23C=C[C@H](O)CC2Oc2c(OC)ccc(c23)C1 (mixture of isomers) [Nr 91]	21	> 100
COc1ccc2c3c1OC1C[C@@H](O)C=CC31CCN(C(=O)Nc1ccc(Cl)cc1)C2 (mixture of isomers) [Nr 92]	24	> 100
COc1ccc2c3c1OC1C[C@@H](O)C=CC31CCN(c1nc(OCCCN(C)C)nc(OCCCN(C)C)n1)C2 (mixture of isomers) [Nr 94]	70	40
CCN(CC)c1nc(N(CC)CC)nc(N2CCC34C=C[C@H](O)CC3Oc3c(OC)ccc(c34)C2)n1 (mixture of isomers) [Nr 95]	40	> 100
COc1ccc2c3c1OC1C[C@@H](O)C=CC31CCN(c1ccnc(OCCCN(C)C)n1)C2 (mixture of isomers) [Nr 96]	7.4	36
CCN(CC)c1nccc(N2CCC34C=C[C@H](O)CC3Oc3c(OC)ccc(c34)C2)n1 (mixture of isomers) [Nr 97]	25	> 100
COc1ccc2c3c1OC1C[C@@H](O)C=CC31CCN(CCC(=O)NC(C)(C)C)C2 (mixture of isomers) [Nr 101]	45	26
C=C(C)C[N+]1(C)CCC23C=C[C@@H](O)CC2Oc2c(OC)cc(C)c(c23)C1 (mixture of isomers) [Nr 102]	> 100	95
C#CC[N+]1(C)CCC23C=C[C@@H](O)CC2Oc2c(OC)cc(C)c(c23)C1 (mixture of isomers) [Nr 103]	59	45

SMILES	IC50 [1] [µM]	IC50 [2] [µM]
C=CC[N+]1(C)CCC23C=C[C@@H](O)CC2Oc2c(OC)cc(C)c(c23)C1 (mixture of isomers) [Nr 104]	> 100	52
COc1cc(C)c2c3c1OC1C[C@H](O)C=CC31CC[N+](C)(Cc1ccc(C(F)(F)F)cc1)C2 (mixture of isomers) [Nr 105]	60	5.4
COc1cc(C)c2c3c1OC1C[C@H](O)C=CC31CC[N+](C)(Cc1ccccc1)C2 (mixture of isomers) [Nr 106]	> 100	3
COc1cc(C)c2c3c1OC1C[C@@H](O)C=CC31CC[N+](C)(C)C2 (mixture of isomers) [Nr 107]	> 100	14
COC(=O)/C=C(\C(=O)OC)N1CCC23C=C[C@H](O)CC2Oc2c(OC)ccc(c23)C1 (mixture of isomers) [Nr 108]	140	80
COc1ccc2c3c1OC1C[C@@H](O)C=CC31CCN(CCC(=O)NC(C)C)C2 (mixture of isomers) [Nr 109]	54.5	36
CCOC(=O)/C=C/N1CCC23C=C[C@H](O)CC2Oc2c(OC)ccc(c23)C1 (mixture of isomers) [Nr 110]	50	> 100
COc1ccc2c3c1OC1C[C@@H](O)C=CC31CCN(C(=O)N[C@H](C)c1ccccc1)C2 (mixture of isomers) [Nr 112]	30	> 100
COc1ccc2c3c1OC1C[C@@H](O)C=CC31CCC(N)C2 (mixture of isomers) [Nr 140]	5.3	> 100
COc1cc(C)c2c3c1OC1C[C@@H](O)C=CC31CCN(C)C2C#N (mixture of isomers) [Nr 145]	80	> 100
CCCCNC(=O)O[C@H]1C=C[C@@]23CCN(C)Cc4ccc(OC)c(c42)O[C@H]3C1 [Nr 1]	> 100	4.8
COc1ccc2c3c1O[C@@H]1C[C@H](O)C=C[C@]31CC[N+](C)(CCN1CCOCC1)C2 (stereo partly shown) [Nr 12]	57	13
C#CC[N+]1(C)CC[C@@]23C=C[C@H](O)C[C@@H]2Oc2c(OC)ccc(c23)C1 (stereo partly shown) [Nr 16]	1.4	1.7
COc1cc([N+](=O)[O-])c2c3c1O[C@H]1C[C@@H](O)C=C[C@@]31CCN(C)C2 [Nr 45]	> 100	25
COc1cc(N)c2c3c1O[C@H]1C[C@@H](O)C=C[C@@]31CCN(C)C2 [Nr 48]	77	4.9
COc1ccc2c3c1O[C@H]1C[C@@H](O)C=C[C@@]31CC[N+](C)(CC1CC1)C2 (stereo partly shown) [Nr 53]	1.2	3.6
COc1ccc2c3c1O[C@H]1C[C@@H](O)C=C[C@@]31CC[N+](C)(CC=C(C)C)C2 (stereo partly shown) [Nr 54]	0.2	0.21
COc1cc(N(C)C)c2c3c1O[C@H]1C[C@@H](O)C=C[C@@]31CCN(C)C2 [Nr 56]	> 100	0.47
COc1ccc2c3c1O[C@H]1C[C@@H](O)C=C[C@@]31CC[N+](C)(Cc1ccc(Br)cc1)C2 (stereo partly shown) [Nr 58]	0.2	0.6
COc1ccc2c3c1O[C@H]1C[C@H](N)C=C[C@@]31CCN(C)C2 [Nr 84]	40	6
COc1ccc2c3c1O[C@H]1C[C@@H](O)C=C[C@@]31CCN(C(=O)Nc1ccccc1C(F)(F)F)C2 [Nr 111]	30	> 100
COc1ccc2c3c1O[C@H]1C[C@@H](O)C=C[C@@]31CCN(C(N)=O)C2 [Nr 113]	44	> 100

SMILES	IC50 [1] [µM]	IC50 [2] [µM]
COc1ccc2c3c1O[C@H]1C[C@@H](O)C=C[C@@]31CCN(C(=O)NC(C)C)C2 [Nr 114]	2.6	10
COc1ccc2c3c1O[C@H]1C[C@@H](O)C=C[C@@]31CCN(C(=O)NC(C)(C)C)C2 [Nr 115]	2.5	7
COc1ccc2c3c1O[C@H]1C[C@@H](O)C=C[C@@]31CCN(/C(=N/C#N)SC)C2 [Nr 117]	6.7	30
CN1CC[C@@]23C=C[C@H](O)C[C@@H]2Oc2c(Oc4ccccc4)ccc(c23)C1 [Nr 118]	21	3.4
COc1ccc2c3c1O[C@H]1C[C@@H](O)C=C[C@@]31CCN(CCC(=O)O)C2 [Nr 120]	42	40
COc1ccc2c3c1O[C@H]1C[C@@H](O)C=C[C@@]31CCN(c1ccccc1)C2 [Nr 123]	0.5	0.24
COc1ccc2c3c1O[C@H]1C[C@@H](O)C=C[C@@]31CCN(c1cccs1)C2 [Nr 124]	4	0.54
COc1ccc2c3c1O[C@@H]1C[C@H](O)C=C[C@]31CCN(C(=O)NC(C)C)C2 [Nr 126]	8	90
COc1ccc2c3c1O[C@H]1C[C@@H](O)C=C[C@@]31CC[N+](C)=C2 [Nr 127]	0.3	1.5
COc1ccc2c3c1O[C@H]1C[C@@H](O)C=C[C@@]31CCN(CCCN1CCCCC1)C2 [Nr 128]	0.3	1.5
CNC(=S)N1CC[C@@]23C=C[C@H](O)C[C@@H]2Oc2c(OC)ccc(c23)C1 [Nr 129]	18.5	63
CC(C)NC(=O)N1CC[C@@]23C=C[C@H](O)C[C@@H]2Oc2c(O)ccc(c23)C1 [Nr 130]	6.3	60
COc1ccc2c3c1O[C@H]1C[C@@H](O)C=C[C@@]31CCN(CC1CC1)C2 [Nr 131]	0.7	1.2
COc1ccc2c3c1O[C@H]1C[C@@H](O)C=C[C@@]31CCN(C)C2C#N (stereo partly shown) [Nr 133]	0.8	> 100
COc1ccc2c3c1O[C@H]1C[C@@H](O)C=C[C@@]31CCN(C)C2C (stereo partly shown) [Nr 135]	4.2	25
COc1ccc2c3c1O[C@H]1C[C@@H](O)C=C[C@@]31CCN(C(=O)Oc1ccccc1)C2 [Nr 137]	46	> 100
COc1cc(C)c2c3c1O[C@H]1C[C@H](O)C=C[C@@]31CCN(CCCN1CCCCC1)C2 [Nr 138]	> 100	70
COc1ccc2c3c1O[C@H]1C[C@@H](O)C=C[C@@]31CCN(C(=O)OC(C)(C)C)C2 [Nr 139]	23	> 100
COc1ccc2c3c1O[C@H]1C[C@@H](O)C=C[C@@]31CCN(CCN)C2 [Nr 141]	1.3	2.1
COc1ccc2c3c1O[C@H]1C[C@@H](O)C=C[C@@]31CCN(CCCN1CC3CC1CN3c1ccc(F)cc1)C2 (stereo partly shown) [Nr 142]	3	2.4
COc1ccc2c3c1O[C@H]1C[C@@H](O)C=C[C@@]31CCN(CC(=O)N1CC3CC1CN3c1ccccc1)C2 (stereo partly shown) [Nr 143]	8.4	2.4
